Experimental data: patent US12496269B2, “Steamed Glycyrrhiza sp. extract with increased glycyrrhetinic acid contents and preparation method thereof” (LG Household & Health Care Ltd., priority 2021, dated 2025)

How the values were obtained:
MNT-1 melanoma cells = assay: Whitening effect by inhibition of melanin production; assay type: cell-based; conditions: Homo sapiens, positive control at 200 μg/mL (200 ppm), 72 hours, vs control group, read-out: Melanin production inhibition rate (%)
Experimental: In order to examine the whitening effect of the Glycyrrhiza sp. extract, 10 g of the Glycyrrhiza sp., which was not treated, steamed at 120° C., or roasted at 200° C. and steamed at 120° C., was extracted with 200 mL of 50% butylene glycol and filtered to prepare each extract.
To culture MNT-1 melanoma cells, a mixture of DMEM (Dulbecco's Modified Eagle's Medium) and FBS (Fetal Bovine Serum) was used as a basic medium, and MNT-1 melanoma cells were dispensed in a 6-well plate at a density of 1×10^5 cells/mL to 2×10^5 cells/mL and cultured for 24 hours. Each extract was treated at a concentration of 0.1% in the cell culture solution, and then cultured for 72 hours. As a control group, 50% butylene glycol was used. Arbutin, which is a positive control, was treated at 200 μg/mL (200 ppm). […] Melanin in the precipitate was dissolved by adding 100 μL of 0.5 N sodium hydroxide solution and incubating for 12 hours, and absorbance at 450 nm was measured using an ELISA reader to measure the total amount of melanin produced. The total amount of melanin, of which production was inhibited as compared to the control group, was determined as the melanin production inhibition rate (%), and the experiment was conducted in triplicate, and then the average value was calculated (Table 5).

Raw264.7 cells = assay: Anti-inflammatory effect by inhibition of NO production (lipopolysaccharide-stimulated); assay type: cell-based; conditions: positive control at 100 μM, lipopolysaccharide 500 ng/mL, 18 hours, vs control group
Experimental: In order to examine the anti-inflammatory effect of the Glycyrrhiza sp. extract, 10 g of the Glycyrrhiza sp., which was not treated, steamed at 120° C., or roasted at 200° C. and steamed at 120° C., was extracted with 200 mL of 50% butylene glycol and filtered to prepare each extract.
To culture Raw264.7 cells, a mixture of DMEM (Dulbecco's Modified Eagle's Medium) and FBS (Fetal Bovine Serum) was used as a basic medium, and Raw264.7 cells were dispensed in a 24-well plate at a density of 1×10^5 cells/mL to 2×10^5 cells/mL and cultured for 24 hours. After removing the medium and starving with a serum-free medium for 12 hours, each extract was treated at a concentration of 1% in the cell culture solution. 30 minutes later, lipopolysaccharide was added at a concentration of 500 ng/mL, followed by culturing for 18 hours. As a control group, 50% butylene glycol was used. L-NMMA, which is a positive control, was treated at 100 μM. After culturing, the supernatant was taken and transferred to a 96-well plate, and GRIESS reagent was added and reacted at room temperature for 15 minutes. Absorbance at 540 nm was measured using an ELISA reader. The total amount of NO, of which production was inhibited as compared to the control group, was determined as the NO production inhibition rate (%), and the experiment was conducted in triplicate, and then the average value was calculated (Table 6).

With OC[C@H]1O[C@@H](Oc2ccc(O)cc2)[C@H](O)[C@@H](O)[C@@H]1O [Arbutin] the inhibition at 200 µg/mL (MNT-1 melanoma cells) was 19.7%.
With CNC(=N)NCCC[C@H](N)C(=O)O [L-NMMA] the “NO production inhibition rate (%)” value (Raw264.7 cells) was 60.9%.
